Here are results for eight compounds from EPA's ToxValDB 9.5.

Data set [1] deals with Rattus norvegicus. The settings on record: subchronic, oral, diet, Fischer 344, Hematology: Hct decrease, Hgb decrease, RBC decrease + Blood Chemistry: CPK increase + Absolute Organ Weight: Liver decrease + Relative ….
In data set [2] the test system is Rattus norvegicus. The settings on record: M/F.
For data set [3], the system named is Mus musculus. The settings on record: repeat dose other; oral.
A further data set deals with Homo sapiens. The settings on record: clinical; duration: 3.5 hours; inhalation; M; neurological.
The subject of a further data set is Tatera sp. The settings on record: intermediate; duration: 3 months; Inhalation; M/F; Mongolian; neurological.
The test system of data set [4] is Oryctolagus sp. The settings on record: subchronic; duration: 10 weeks; oral; drinking water; M; Dutch-belted; Endocrine.
For data set [5], the system named is Oryctolagus sp. The settings on record: subchronic; duration: 13 weeks; inhalation; M; testicular effects.
In data set [6] the test system is Oryctolagus sp. The settings on record: for NOAEL: New Zealand.
Data set [7] deals with Rattus norvegicus. The settings on record: repeat dose other; oral.
A further data set relates to Phasianus colchicus. The settings on record: oral.
Data set [8] relates to Mus musculus. The settings on record: acute; duration: 1 days; oral; gavage; F; B6C3F1; immunological.
The next data set has as its system Monkey. The settings on record: developmental; duration: 16 months; oral; diet; M/F; Rhesus; developmental.
A further data set deals with Cavia porcellus. The settings on record: subchronic; duration: 90 days; oral; diet; M/F; Guinea Pig; lymphatic.
The test system of data set [9] is Oryctolagus sp. The settings on record: duration: 7 days, oral, gavage, New Zealand.
The subject of data set [10] is Rattus norvegicus. The settings on record: oral, gavage, Sprague-Dawley; for NOAEL: reproduction developmental.
The test system of data set [11] is Oryctolagus sp. As to the kind of experiment: LD0; higher = less toxic. The settings on record: acute; dermal; occlusive; New Zealand.
Data set [12] has as its system Mus musculus. The settings on record: subchronic, inhalation.
The test system of another data set is Cricetulus sp. The settings on record: subchronic; duration: 13 weeks; inhalation; M/F; Hamster; increased hemolysis, abnormal rbc morphology, and increased spleen weight.
In data set [13] the test system is Canidae. The settings on record: chronic, duration: 1 years, oral, diet, Dog Other, Cardiac toxicity and moderate-to-severe dilation of the right atrium.
Data set [14] concerns Rattus norvegicus. The settings on record: chronic; duration: 2 years; oral; diet; Whole body: Decreased weight gain.
A further data set has as its system Sus scrofa. The settings on record: short-term; duration: 19 days; oral; diet; F; Swedish Landrace/Large Yorkshire cross; reproductive.
The test system of data set [15] is Mus musculus. The settings on record: chronic, oral, diet, B6C3F1.
Data set [16] concerns Canidae. The settings on record: chronic; duration: 52 weeks; oral; capsule; M/F; Beagle; hepatic.
Setting [17] is: duration: 12 weeks, Increased hemolysis, increased spleen weight, and impaired compensatory erythropoiesis.
Where [18] appears, read: duration: 13 weeks, M/F, increased hemolysis, abnormal rbc morphology, and increased spleen weight.
The mark [19] stands for this setting: subchronic, duration: 13 weeks, inhalation, increased hemolysis, abnormal rbc morphology, and increased spleen weight.
[20] abbreviates: chronic, duration: 2 years, oral, diet, reduced body weight gain.

Some results are limits rather than exact numbers.

As a reminder, the NOAEL is the highest dose or exposure tested at which no adverse effect was seen. As usually defined, the LOAEL is the lowest tested level that showed an adverse finding. With `CC(Cl)(Cl)Cl` [1,1,1-Trichloroethane], the NOEL in the data set on Rattus norvegicus [1] (F) is 310 mg/kg-day; in the data set on Rattus norvegicus [1] (M/F), 480 mg/kg-day. Besides, the NOAEL worked out at 8190 mg/m3 in the data set on Rattus norvegicus [2] (chronic, duration: 2 years, inhalation, liver histopathologic changes); 1000 mg/kg-day in the data set on Mus musculus [3]; 70 ppm in the data set on Tatera sp.. For the same compound, the LOAEL in the data set on Homo sapiens was 955 mg/m3.

`ClCC(Br)CBr` (centres undefined) [1,2-Dibromo-3-chloropropane]: the NOAEL turned out to be 0.7 mg/kg-day in the data set on Oryctolagus sp. [4]; 0.94 mg/m3 in the data set on Oryctolagus sp. [5]; 0.967 mg/m3 with Oryctolagus sp. [6] (chronic, duration: 14 weeks, inhalation, M, reproductive). For the same compound, the LOAEL stood at 9.4 mg/m3 with Oryctolagus sp. [5] and 1.88 mg/kg-day in the data set with Oryctolagus sp. [6] (subchronic, duration: 10 weeks, oral, drinking water, M, Dutch belted, reproductive).

Turning to `Clc1cc2c(cc1Cl)Oc1cc(Cl)c(Cl)cc1O2` [2,3,7,8-Tetrachlorodibenzo-p-dioxin], the LOAEL was 1e-05 mg/kg-day with Rattus norvegicus [7], 0.00014 mg/kg-day with Phasianus colchicus and 1.2e-07 mg/kg-day in the data set with Monkey. The NOAEL amounted to 1e-06 mg/kg-day with Rattus norvegicus [7], 1.4e-05 mg/kg-day in the data set with Phasianus colchicus, 5e-06 mg/kg-day in the data set on Mus musculus [8] and 7e-07 mg/kg-day in the data set on Cavia porcellus.

In general, LD50 refers to the dose at which mortality reaches 50%. For the compound `Nc1ccc([N+](=O)[O-])cc1` [4-Nitrobenzenamine], the NOAEL with Oryctolagus sp. [9] (developmental) was 125 mg/kg-day; with Oryctolagus sp. [9] (reproduction developmental, generation: F1), 125 mg/kg-day; in the data set with Rattus norvegicus [10] (duration: 90 days), below 3 mg/kg-day; with Rattus norvegicus [10] (duration: 167 days, generation: F0), 1.5 mg/kg-day; in the data set on Rattus norvegicus [10] (duration: 167 days, generation: F1), 9000 mg/kg-day. In the data set with Rattus norvegicus [10] (acute), this compound yielded an LD50 of 1400 mg/kg. In the data set with Oryctolagus sp. [11], this compound showed an LD0 above 7940 mg/kg.

Take `[AsH3]` [Arsine]: the LOAEL with Mus musculus [12] (setting [17]), with Mus musculus [12] (setting [18]), in the data set with Rattus norvegicus [2] (setting [19]) and in the data set with Cricetulus sp. was 1.6 mg/m3 throughout. The NOAEL in the data set with Mus musculus [12] (setting [17]), with Mus musculus [12] (setting [18]), with Rattus norvegicus [2] (setting [19]) and in the data set on Cricetulus sp. was 0.08 mg/m3 in each case.

Turning to `CCNc1nc(Cl)nc(NC(C)C)n1` [Atrazine], the LOAEL in the data set with Canidae [13] (F) came out at 33.8 mg/kg-day; with Canidae [13] (M), 33.6 mg/kg-day; in the data set on Rattus norvegicus [2] (setting [20]), 25 mg/kg-day; in the data set with Sus scrofa, 1 mg/kg-day. Besides, the NOAEL was 4.97 mg/kg-day in the data set with Canidae [13] (M/F); 3.5 mg/kg-day in the data set on Rattus norvegicus [2] (setting [20]); 1 mg/kg-day in the data set with Oryctolagus sp. [6] (reproduction developmental, duration: 12 days, oral, gavage, F, body weight). Besides, the NOEL with Rattus norvegicus [14] was determined as 3.5 mg/kg-day.

Turning to `COC(=O)c1cc(Oc2ccc(Cl)cc2Cl)ccc1[N+](=O)[O-]` [Bifenox], the LOAEL in the data set on Mus musculus [15] (duration: 2 years, M/F, Urinary) stood at 7 mg/kg-day. Also, the NOAEL with Canidae [16] stood at 145 mg/kg-day.

For `Cc1ccc([N+](=O)[O-])cc1N` [C.I. Azoic Diazo Component 12], in the data set with Mus musculus [15] (duration: 78 weeks, F), the LOAEL came to 207 mg/kg-day.
